The values below come from patent publication US20070155802A1, “Fungicide composition comprising an arylamidine derivative and known fungicide compounds” (priority 2004, published 2007).

Assay [1] deals with Wheat Powdery Mildew (Erysiphe graminis or blumeria graminis). In words: Open field trial on wheat, wheat powdery mildew, natural contamination. Format: in vivo. Particulars: 20 days after application 2, BBCH73. Here is the method:
(§1) They are intended to give an illustration of the efficacy of the composition according to the invention on several cereal diseases, in particular a composition combining compound (A), having as chemical name N-ethyl-N-methyl-N′-[4-(chloro-3-trifluoromethylphenoxy)-2,5-xylyl]formamidine, with a fungicide compound of the triazole type, namely prothioconazole. The trials on cereals were carried out in an open field.
(§2) The objective of these field trials is therefore to test the efficacy of compounds (A), alone at 100 g/ha; 125 g/ha and 150 g/ha in combination with prothioconazole at 150 g a.i./ha; representing a class of fungicide compounds. Powdery mildew (Erysiphe graminis or blumeria graminis) and Septoria diseases (Mycosphaerella graminicola or Septoria tritici) are the principal diseases treated.
(§3) The products tested are therefore • N-ethyl-N-methyl-N′-[4-(chloro-3-trifluorométhylphénoxy)-2,5-xylyl]-formamidine as compound (A) at 100 g/ha; 125 g/ha and 150 g/ha as an EC type formulation at 150 g/l; • prothioconazole as compound (B) at 150 g/ha as a formulation at 250 g/l; • compound (A) and prothioconazole combination at 100+150 g/ha as a fresh preparation; • compound (A) and prothioconazole combination at 125+150 g/ha as a fresh preparation; • compound (A) and prothioconazole combination at 150+150 g/ha as a fresh preparation; • the reference product is a mixture of epoxyconazole and pyraclostrobin (Opera® 1,51/ha recommended on Septoria tritici).
(§4) Each trial comprises 3 repeats.
(§5) Untreated control plots are included in the experimental design in order to measure the severity of the diseases.
The trials were conducted under natural contamination conditions. The equipment for application of the different active ingredients is a constant compressed air pressure back sprayer. The spray nozzles have slits. […]
The results were measured 20 days after the second application of the products onto wheat and are presented in table 2; for Erysiphe graminis, assessment 20 days after application 2 at stage BBCH73 by observations of Flag leaf-Flag-1-Flag-2.

Assay [2] deals with Wheat Leaf-spot (Septoria tritici or Mycosphaerella graminicola). Description: Open field trial on wheat, wheat leaf-spot, natural contamination. It counts as in vivo. Conditions: 30 days after application 2, BBCH73. How it is done:
as §1, §2, §3, §4, §5
The trials were conducted under natural contamination conditions. The equipment for application of the different active ingredients is a constant compressed air pressure back sprayer. The spray nozzles have slits.
The efficacy results were obtained from controls carried out in the field by overall evaluation of the percentage infestation.
The results were measured 30 days after the second application and are presented in table 3; for Septoria tritici, assessment 30 days after application 2 at stage BBCH73 by observations of Flag leaf-Flag-1-Flag-2.

With `OC(Cc1ccccc1Cl)(Cn1nc[nH]c1=S)C1(Cl)CC1` (stereo not shown) [prothioconazole, reference compound], the “% Efficacy observed (X)” value in assay [1] (150 g ai/Ha) stood at 71%; in assay [2] (150 g ai/Ha), 69%.

Take `CCN(C)C=Nc1cc(C)c(Oc2ccc(Cl)c(C(F)(F)F)c2)cc1C` [Compound A]: the “% Efficacy observed (X)” value in assay [1] (125 g ai/Ha) is on record as 16%; in assay [1] (150 g ai/Ha) it was 14%; in assay [2] (100 g ai/Ha), 17%; in assay [2] (125 g ai/Ha) it was 19%; in assay [2] (150 g ai/Ha), 24%.
